Our source for the EC50, Emax and activation values is US20240150377A1, “MODULATORS OF CYSTIC FIBROSIS TRANSMEMBRANE CONDUCTANCE REGULATOR” (VERTEX PHARMACEUTICALS INCORPORATED, priority 2020, published 2024).

The structures appear in SMILES notation. Like-named read-outs stand apart in the source and are kept apart here.

In the test the target is T1, CFTR (Homo sapiens, UniProt P13569, DEL508-508).
T1 construct: endogenous in cells; host or cells: primary human bronchial epithelial cells from CF subjects (F508del/MF-HBE), differentiated at air-liquid interface
Kind of test: HBE assay: Ussing chamber assay of CFTR-mediated short-circuit currents. The test is classed as cell-based. The note with it: for EC50: read-out: HBE EC50; for activation at 10 µM: read-out: HBE Activity at 10 μM (%). In short, it runs like this:
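CFTR-mediated Isc (μA/cm²) equals the peak response to apical 20 μM forskolin minus the residual after a 20 μM each BPO/GlyH-101/CFTR inhibitor 172 cocktail, recorded in Ussing chambers at Vhold 0 mV, 37 °C, pH 7.4, with 30 μM apical amiloride. Cells were F508del/MF HBE cultures preincubated 18-24 h with corrector (concentration range or 10 μM) plus 1 μM ivacaftor in 20% human serum.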

Where [1] appears, read: Table 11, read-out: HBE Max Activity (%).
Setting [2] is: Table 10, read-out: HBE Max activity (%).
[3] abbreviates: HBE assay, read-out: HBE Max activity (%).
Where [4] appears, read: Table 13, read-out: HBE Max Activity (%).
Setting [5] is: Table 12, read-out: HBE Max Activity (%).

T1 sequence (P13569 with tags, fused parts or gaps DEL508-508): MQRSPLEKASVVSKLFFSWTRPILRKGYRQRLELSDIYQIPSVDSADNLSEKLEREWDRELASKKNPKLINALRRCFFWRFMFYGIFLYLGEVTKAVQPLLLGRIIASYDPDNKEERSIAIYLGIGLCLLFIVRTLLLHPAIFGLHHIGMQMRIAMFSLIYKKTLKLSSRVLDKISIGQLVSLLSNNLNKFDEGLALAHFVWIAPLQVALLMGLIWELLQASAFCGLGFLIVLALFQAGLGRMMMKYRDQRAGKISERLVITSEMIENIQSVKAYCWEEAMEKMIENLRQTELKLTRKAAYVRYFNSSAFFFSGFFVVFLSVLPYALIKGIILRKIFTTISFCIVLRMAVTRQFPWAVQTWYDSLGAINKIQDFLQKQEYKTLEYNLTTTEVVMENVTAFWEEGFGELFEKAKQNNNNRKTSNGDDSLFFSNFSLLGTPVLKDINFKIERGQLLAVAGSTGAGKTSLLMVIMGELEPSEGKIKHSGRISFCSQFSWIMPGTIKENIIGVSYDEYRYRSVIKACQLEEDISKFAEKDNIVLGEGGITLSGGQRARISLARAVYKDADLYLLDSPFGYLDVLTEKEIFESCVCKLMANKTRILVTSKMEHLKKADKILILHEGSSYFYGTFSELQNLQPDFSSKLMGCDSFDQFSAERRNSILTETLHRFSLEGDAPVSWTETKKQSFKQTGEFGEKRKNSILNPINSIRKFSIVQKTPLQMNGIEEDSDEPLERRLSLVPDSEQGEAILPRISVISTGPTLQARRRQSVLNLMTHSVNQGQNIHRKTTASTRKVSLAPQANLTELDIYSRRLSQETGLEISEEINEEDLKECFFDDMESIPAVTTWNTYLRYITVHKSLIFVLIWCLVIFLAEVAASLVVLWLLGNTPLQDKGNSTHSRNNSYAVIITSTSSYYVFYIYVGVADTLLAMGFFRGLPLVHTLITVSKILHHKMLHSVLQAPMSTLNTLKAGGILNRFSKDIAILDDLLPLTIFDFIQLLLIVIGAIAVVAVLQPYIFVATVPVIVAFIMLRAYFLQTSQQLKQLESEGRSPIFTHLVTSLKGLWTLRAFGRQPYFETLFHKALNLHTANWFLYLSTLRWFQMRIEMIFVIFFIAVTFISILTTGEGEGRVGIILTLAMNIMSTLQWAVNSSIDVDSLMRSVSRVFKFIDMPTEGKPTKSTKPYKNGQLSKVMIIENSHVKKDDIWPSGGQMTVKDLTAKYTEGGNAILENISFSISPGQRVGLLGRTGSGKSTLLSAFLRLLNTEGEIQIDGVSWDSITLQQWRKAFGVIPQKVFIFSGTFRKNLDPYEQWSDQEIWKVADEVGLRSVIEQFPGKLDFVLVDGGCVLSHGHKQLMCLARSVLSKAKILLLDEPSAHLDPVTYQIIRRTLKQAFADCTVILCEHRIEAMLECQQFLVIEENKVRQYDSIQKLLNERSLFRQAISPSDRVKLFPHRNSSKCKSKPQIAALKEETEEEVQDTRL

Consider `Cc1cccc(C)c1-c1cc2nc(n1)NS(=O)(=O)c1cccc(c1)C(=O)N(Cc1cnc(C(C)C)cn1)[C@H](CC(C)(C)C)CO2` [Compound 893], for which the EC50 – broadly, the concentration that produces a half-maximal response – (Table 11) is less than 1000 nM. For the same molecule, under setting [1], the Emax was greater than 60%.

For `Cc1cccc(C)c1-c1cc2nc(n1)NS(=O)(=O)c1cccc(c1)C(=O)N(Cc1cc(CO)ccn1)[C@H](CC(C)(C)C)CO2` [Compound 811], where the note is “Table 11”, the EC50 was less than 1000 nM. For the same molecule, the Emax under setting [1] was greater than 60%.

Take `CCC1(CO)CCCN1c1cccc(CN2C(=O)c3cccc(c3)S(=O)(=O)Nc3nc(cc(-c4c(C)cccc4C)n3)OC[C@H]2CC(C)(C)C)n1` (stereo in doubt) [Compound 1458]: the activation at 10 µM (HBE assay, 10 μM) is greater than 60%.

With `Cc1cccc(C)c1-c1cc2nc(n1)NS(=O)(=O)c1cccc(c1)C(=O)N(Cc1ccc(C3CCCCC3)nn1)[C@H](CC(C)(C)C)CO2` [Compound 233], for the setting “Table 12, at 10 μM”, the activation at 10 µM is greater than 600%.

Turning to `Cc1cccc(C)c1-c1cc2nc(n1)NS(=O)(=O)c1cccc(c1)C(=O)N(Cc1cnccc1N1CCOCC1)[C@H](CC(C)(C)C)CO2` [Compound 376], the EC50 (Table 10) was less than 1000 nM. Moreover, the Emax under setting [2] was greater than 60%.

Take `Cc1cccc(C)c1-c1cc2nc(n1)NS(=O)(=O)c1cccc(c1)C(=O)N(Cc1ccc(N3CCC(C(=O)O)CC3)cn1)[C@H](CC(C)(C)C)CO2` [Compound 251]: the activation at 10 µM (Table 13, at 10 μM) is 30 to 60%.

Consider `COCCN(c1cncc(CN2C(=O)c3cccc(c3)S(=O)(=O)Nc3nc(cc(-c4c(C)cccc4C)n3)OC[C@H]2CC(C)(C)C)n1)C1CCC1` [Compound 1417], for which, under “HBE assay”, the EC50 was less than 1000 nM. For the same molecule, the Emax under setting [3] was greater than 60%.

With `Cc1cccc(C)c1-c1cc2nc(n1)NS(=O)(=O)c1cccc(c1)C(=O)N(Cc1nccc(N(C)C)n1)[C@H](CC(C)(C)C)CO2` [Compound 649], the EC50 (Table 11) is less than 1000 nM. The Emax under setting [1] was greater than 60%.

Consider `Cc1cccc(C)c1-c1cc2nc(n1)NS(=O)(=O)c1cccc(c1)C(=O)N(Cc1ncc(OC3CC(C)(C)C3)cn1)[C@H](CC(C)(C)C)CO2` [Compound 1422], for which the half-maximal effective concentration (EC50) (HBE assay) was less than 1000 nM. The Emax under setting [3] is greater than 60%.

Take `Cc1cccc(C)c1-c1cc2nc(n1)NS(=O)(=O)c1cccc(c1)C(=O)N(Cc1ccc(N3CC4(CC(=O)C4)C3)cn1)[C@H](CC(C)(C)C)CO2` [Compound 1056]: the EC50 (Table 13) lay in the range of 1000 to 3000 nM. Besides, the Emax under setting [4] is greater than 60%.

On to `COC1CCN(c2cccc(CN3C(=O)c4cccc(c4)S(=O)(=O)Nc4nc(cc(-c5c(C)cccc5C)n4)OC[C@H]3CC(C)(C)C)n2)CC1` [Compound 722], for which the EC50 (Table 11) was less than 1000 nM. For the same molecule, the Emax under setting [1] is greater than 60%.

Consider `CCC(=O)CN1C(=O)c2cccc(c2)S(=O)(=O)Nc2nc(cc(-c3c(C)cccc3C)n2)OC[C@H]1CC(C)(C)C` [Compound 259], for which the activation at 10 µM (Table 13, at 10 μM) was greater than 600%.

As for `Cc1cccc(C)c1-c1cc2nc(n1)NS(=O)(=O)c1cccc(c1)C(=O)N(Cc1ncc(OC3CCC3)cc1F)[C@H](CC(C)C)CO2` [Compound 1370], where the note is “HBE assay”, the EC50 was less than 1000 nM. For the same molecule, under setting [3], the Emax was greater than 60%.

For the molecule `Cc1cccc(C)c1-c1cc2nc(n1)NS(=O)(=O)c1cccc(c1)C(=O)N(CC(=O)N1CCc3c(Cl)nc(C(F)(F)F)nc3C1)[C@H](CC(C)(C)C)CO2` [Compound 206], the activation at 10 µM (Table 13, at 10 μM) is 30 to 60%.

With `Cc1cccc(C)c1-c1cc2nc(n1)NS(=O)(=O)c1cccc(c1)C(=O)N(Cc1ccnc(N(C)CC(C)(C)C)n1)[C@H](CC(C)(C)C)CO2` [Compound 601], the 50% effective concentration (EC50) (Table 11) is less than 1000 nM. Under setting [1], the Emax is greater than 60%.

As for `Cc1cccc(C)c1-c1cc2nc(n1)NS(=O)(=O)c1cccc(c1)C(=O)N(Cc1cccc(NCC(C)(C)C)n1)[C@H](CC(C)(C)C)CO2` [Compound 471], the Emax under setting [2] was greater than 60%.

With `Cc1cccc(C)c1-c1cc2nc(n1)NS(=O)(=O)c1cccc(c1)C(=O)N(Cc1ccc3c(n1)C(C)CCO3)C(CC(C)(C)C)CO2` (stereo not drawn) [Compound 794], the Emax under setting [2] was greater than 60%.

Turning to `COCCCOc1cnc(CN2C(=O)c3cccc(c3)S(=O)(=O)Nc3nc(cc(-c4c(C)cccc4C)n3)OC[C@H]2CC(C)(C)C)c(F)c1` [Compound 1385], the EC50 (HBE assay) was less than 1000 nM. For the same molecule, the Emax under setting [3] is greater than 60%.

On to `Cc1cccc(C)c1-c1cc2nc(n1)NS(=O)(=O)c1cccc(c1)C(=O)N(Cc1ccc(OCC(C)(C)C)cn1)[C@H](CC(C)(C)C)CO2` [Compound 768], for which the EC50 (Table 10) is 1000 to 3000 nM. Besides, the Emax under setting [2] is greater than 60%.

`COCC(C)N(C)c1ccnc(CN2C(=O)c3cccc(c3)S(=O)(=O)Nc3nc(cc(-c4c(C)cccc4C)n3)OC[C@H]2CC(C)(C)C)n1` (stereo partly drawn) [Compound 448]: under “Table 12, at 10 μM”, the activation at 10 µM was greater than 600%.

Consider `Cc1cccc(C)c1-c1cc2nc(n1)NS(=O)(=O)c1cccc(c1)C(=O)N(Cc1ccc(OCCC(C)(C)C)cn1)[C@H](CC(C)(C)C)CO2` [Compound 746], for which the activation at 10 µM (Table 11, at 10 μM) was greater than 60%.

For `COc1ccc(CN2C(=O)c3cccc(c3)S(=O)(=O)Nc3nc(cc(-c4c(C)cccc4C)n3)OC[C@H]2CC(C)(C)C)cc1` [Compound 770], the EC50 (Table 10) is less than 1000 nM. Further, the Emax under setting [2] is greater than 60%.

Consider `Cc1cc(NC(C)C)cnc1CN1C(=O)c2cccc(c2)S(=O)(=O)Nc2nc(cc(-c3c(C)cccc3C)n2)OC[C@H]1CC(C)(C)C` [Compound 1373], for which the EC50 (HBE assay) was less than 1000 nM. Moreover, the Emax under setting [3] is greater than 60%.

For `COc1ccc(CN2C(=O)c3cccc(c3)S(=O)(=O)Nc3nc(cc(-c4c(C)cccc4C)n3)OC[C@H]2CC(C)(C)C)nc1` [Compound 501], the EC50 (Table 10) was less than 1000 nM. Under setting [2], the Emax was greater than 60%.

On to `Cc1cccc(C)c1-c1cc2nc(n1)NS(=O)(=O)c1cccc(c1)C(=O)N(Cc1ccc(C3=CCCCC3)nn1)[C@H](CC(C)(C)C)CO2` [Compound 237], for which the activation at 10 µM (Table 12, at 10 μM) was greater than 600%.

Consider `COCCOc1cnc(CN2C(=O)c3cccc(c3)S(=O)(=O)Nc3nc(cc(-c4c(C)cccc4C)n3)OC[C@H]2CC(C)(C)C)nc1` [Compound 1380], for which, for the setting “HBE assay”, the EC50 is less than 1000 nM. Besides, the Emax under setting [3] was greater than 60%.

For `Cc1cccc(C)c1-c1cc2nc(n1)NS(=O)(=O)c1cccc(c1)C(=O)N(Cc1ncc(OC3CC(F)(F)C3)cn1)[C@H](CC(C)(C)C)CO2` [Compound 1397], the EC50 (HBE assay) is less than 1000 nM. The Emax under setting [3] is greater than 60%.

With `Cc1cccc(C)c1-c1cc2nc(n1)NS(=O)(=O)c1cccc(c1)C(=O)N(Cc1cncc(N3CCCC[C@@H]3C3CC3)n1)[C@H](CC(C)(C)C)CO2` [Compound 1533], the activation at 10 µM is greater than 60%.

With `Cc1cccc(C)c1-c1cc2nc(n1)NS(=O)(=O)c1cccc(c1)C(=O)N(Cc1ccc3nc(NC(=O)CC(C)C)sc3c1)[C@H](CC(C)(C)C)CO2` [Compound 697], for the setting “Table 12, at 10 μM”, the activation at 10 µM is greater than 600%.

For `Cc1cccc(C)c1-c1cc2nc(n1)NS(=O)(=O)c1cccc(c1)C(=O)N(Cc1ncc(OC(C)C)cn1)[C@H](CC(C)C)CO2` [Compound 239], the EC50 (Table 12) lay within 1000 to 3000 nM. Moreover, the Emax under setting [5] is greater than 60%.

As for `COC[C@]1(O)CC[C@@H](CN2C(=O)c3cccc(c3)S(=O)(=O)Nc3nc(cc(-c4c(C)cccc4C)n3)OC[C@H]2CC(C)(C)C)CC1` [Compound 907], the EC50 (Table 10) was less than 1000 nM. Besides, under setting [2], the Emax is greater than 60%.

With `Cc1cccc(C)c1-c1cc2nc(n1)NS(=O)(=O)c1cccc(c1)C(=O)N(CC1(N(C)C)CC3(CCC3)C1)[C@H](CC(C)(C)C)CO2` [Compound 997], the activation at 10 µM (Table 13, at 10 μM) is greater than 600%.

`Cc1cccc(C)c1-c1cc2nc(n1)NS(=O)(=O)c1cccc(c1)C(=O)N(Cc1cccc(N3CCCC3C(C)C)n1)[C@H](CC(C)(C)C)CO2` (stereo partly drawn) [Compound 548]: the EC50 (Table 12) was less than 1000 nM.

For `Cc1cccc(C)c1-c1cc2nc(n1)NS(=O)(=O)c1cccc(c1)C(=O)N(CC(=O)N1CCC(c3ccccc3)C1)[C@H](CC(C)(C)C)CO2` (stereo partly drawn) [Compound 191], for the setting “Table 13, at 10 μM”, the activation at 10 µM is greater than 600%.

In the case of `CO[C@H]1C[C@@H](Oc2cnc(CN3C(=O)c4cccc(c4)S(=O)(=O)Nc4nc(cc(-c5c(C)cccc5C)n4)OC[C@H]3CC(C)C)nc2)C1` (stereo in doubt) [Compound 1462], for the setting “HBE assay”, the EC50 was less than 1000 nM.

On to `COc1cccc(C)c1-c1cc2nc(n1)NS(=O)(=O)c1cccc(c1)C(=O)N(Cc1ncc(N3CCC(C)(C)C3)cn1)[C@H](CC(C)(C)C)CO2` [Compound 579], for which, for the setting “Table 12”, the EC50 is less than 1000 nM. Besides, the Emax under setting [5] is greater than 60%.

For `Cc1cccc(C)c1-c1cc2nc(n1)NS(=O)(=O)c1cccc(c1)C(=O)N(Cc1ccc(C3CC4(COC4)C3)cn1)[C@H](CC(C)(C)C)CO2` [Compound 164], the EC50 (Table 13) is less than 1000 nM. The Emax under setting [4] was greater than 60%.

For the molecule `Cc1cccc(C)c1-c1cc2nc(n1)NS(=O)(=O)c1cccc(c1)C(=O)N(CC(=O)N1CCC[C@H](c3ccccc3)C1)[C@H](CC(C)(C)C)CO2` [Compound 195], the activation at 10 µM (Table 13, at 10 μM) was greater than 600%.

With `Cc1cccc(C)c1-c1cc2nc(n1)NS(=O)(=O)c1cccc(c1)C(=O)N(Cc1ncc(N3CC(C)(O)C3)cn1)[C@H](CC(C)(C)C)CO2` [Compound 586], the EC50 (Table 12) is less than 1000 nM. Further, the Emax under setting [5] is greater than 60%.

Regarding `Cc1cccc(C)c1-c1cc2nc(n1)NS(=O)(=O)c1cccc(c1)C(=O)N(Cc1cc(NC(C)C)ccn1)[C@H](CC(C)(C)C)CO2` [Compound 995], under “Table 13, at 10 μM”, the activation at 10 µM was greater than 600%.

As to `Cc1cccc(C)c1-c1cc2nc(n1)NS(=O)(=O)c1cccc(c1)C(=O)N(CC1CC3(C1)CC(NC(=O)OC(C)(C)C)C3)[C@H](CC(C)C)CO2` (stereo partly drawn) [Compound 1004], for the setting “Table 12, at 10 μM”, the activation at 10 µM is greater than 600%.
